Test results taken from patent publication US20100216779A1 (GLAXOSMITHKLINE LLC, priority 2007, published 2010).

Experiments:
Assay type in all cases: cell-based
COLO205 (colon) = assay: Inhibition of cell proliferation, CellTiter-Glo, COLO205; conditions: Homo sapiens, COLO 205, 72 h
In short: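 Exponentially growing COLO205 cells in medium with 10% FBS were plated below 2000 cells/well at 37 °C, 5% CO2. Untreated wells served as controls.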

[1] = test system: NCI-H929 (multiple myeloma); assay: Inhibition of cell proliferation, CellTiter-Glo, NCI-H929; conditions: Homo sapiens, 72 h
In short: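 Cells were grown in medium with 10% FBS at 37° C, 5% CO2. Cell number was read as CellTiter-Glo luminescence (cellular ATP), with untreated wells as control.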

[2] = target: T1, human IGF-1R (NIH-3T3 cells over expressing human IGF-1R) (Homo sapiens, UniProt P08069); assay: IGF-1R cellular autophosphorylation (DELFIA); conditions: IGF-1 stimulated
T1 construct: expressed in transfected cells; host or cells: NIH-3T3 (mouse fibroblasts)
T1 sequence (P08069 31-1367): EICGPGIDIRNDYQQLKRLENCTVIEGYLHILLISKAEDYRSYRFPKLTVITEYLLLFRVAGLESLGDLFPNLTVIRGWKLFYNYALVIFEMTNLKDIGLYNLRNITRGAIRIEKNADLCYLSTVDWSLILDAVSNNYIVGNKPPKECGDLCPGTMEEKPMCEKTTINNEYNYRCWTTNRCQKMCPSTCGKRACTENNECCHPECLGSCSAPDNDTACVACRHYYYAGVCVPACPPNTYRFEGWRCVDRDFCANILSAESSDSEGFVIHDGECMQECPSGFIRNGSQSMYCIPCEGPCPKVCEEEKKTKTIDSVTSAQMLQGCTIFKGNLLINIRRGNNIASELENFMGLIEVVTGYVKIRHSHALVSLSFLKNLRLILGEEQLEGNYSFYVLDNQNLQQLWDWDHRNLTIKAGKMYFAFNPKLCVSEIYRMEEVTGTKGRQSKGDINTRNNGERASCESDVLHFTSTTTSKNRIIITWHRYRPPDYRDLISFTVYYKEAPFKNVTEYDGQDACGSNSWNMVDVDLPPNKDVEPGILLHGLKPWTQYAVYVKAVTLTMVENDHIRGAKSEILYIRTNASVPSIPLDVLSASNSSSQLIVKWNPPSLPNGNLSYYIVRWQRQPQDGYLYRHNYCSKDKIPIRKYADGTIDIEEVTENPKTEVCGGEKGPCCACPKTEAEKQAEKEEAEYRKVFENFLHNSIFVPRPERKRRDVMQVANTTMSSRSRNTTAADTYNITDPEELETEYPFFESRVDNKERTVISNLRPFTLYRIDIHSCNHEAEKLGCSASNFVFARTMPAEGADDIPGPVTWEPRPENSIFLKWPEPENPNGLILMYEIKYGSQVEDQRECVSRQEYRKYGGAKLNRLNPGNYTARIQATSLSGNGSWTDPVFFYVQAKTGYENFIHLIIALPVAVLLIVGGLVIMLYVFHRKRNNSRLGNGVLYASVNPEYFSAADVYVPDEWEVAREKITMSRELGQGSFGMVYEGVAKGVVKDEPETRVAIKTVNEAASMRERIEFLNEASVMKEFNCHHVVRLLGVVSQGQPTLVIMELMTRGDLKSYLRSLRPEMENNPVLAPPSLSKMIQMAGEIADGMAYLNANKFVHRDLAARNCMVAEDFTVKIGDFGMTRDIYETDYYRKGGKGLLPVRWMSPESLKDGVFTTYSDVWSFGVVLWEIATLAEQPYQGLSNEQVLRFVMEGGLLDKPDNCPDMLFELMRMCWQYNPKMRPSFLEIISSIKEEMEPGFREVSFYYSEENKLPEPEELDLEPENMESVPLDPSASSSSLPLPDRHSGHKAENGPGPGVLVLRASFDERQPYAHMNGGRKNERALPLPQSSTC
In short: (§1)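 Receptor-overexpressing NIH-3T3, 10% FBS, 37 °C; cpd 30 uM–1.5 nM × 2 h; stim IGF-1 30 ng/mL (IGF-1R) or insulin 3 ug/mL (IR), 15 min; lysate DELFIA, Eu anti-pTyr; % of stimulated signal.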

[3] = target: T2, IR (NIH-3T3 cells over expressing human IGF-1R or IR) (Homo sapiens, UniProt P06213); assay: IR cellular autophosphorylation (DELFIA); conditions: NIH-3T3 cells over expressing IR, insulin stimulated
T2 construct: expressed in transfected cells; host or cells: NIH-3T3 (mouse fibroblasts)
T2 sequence (P06213 28-1382): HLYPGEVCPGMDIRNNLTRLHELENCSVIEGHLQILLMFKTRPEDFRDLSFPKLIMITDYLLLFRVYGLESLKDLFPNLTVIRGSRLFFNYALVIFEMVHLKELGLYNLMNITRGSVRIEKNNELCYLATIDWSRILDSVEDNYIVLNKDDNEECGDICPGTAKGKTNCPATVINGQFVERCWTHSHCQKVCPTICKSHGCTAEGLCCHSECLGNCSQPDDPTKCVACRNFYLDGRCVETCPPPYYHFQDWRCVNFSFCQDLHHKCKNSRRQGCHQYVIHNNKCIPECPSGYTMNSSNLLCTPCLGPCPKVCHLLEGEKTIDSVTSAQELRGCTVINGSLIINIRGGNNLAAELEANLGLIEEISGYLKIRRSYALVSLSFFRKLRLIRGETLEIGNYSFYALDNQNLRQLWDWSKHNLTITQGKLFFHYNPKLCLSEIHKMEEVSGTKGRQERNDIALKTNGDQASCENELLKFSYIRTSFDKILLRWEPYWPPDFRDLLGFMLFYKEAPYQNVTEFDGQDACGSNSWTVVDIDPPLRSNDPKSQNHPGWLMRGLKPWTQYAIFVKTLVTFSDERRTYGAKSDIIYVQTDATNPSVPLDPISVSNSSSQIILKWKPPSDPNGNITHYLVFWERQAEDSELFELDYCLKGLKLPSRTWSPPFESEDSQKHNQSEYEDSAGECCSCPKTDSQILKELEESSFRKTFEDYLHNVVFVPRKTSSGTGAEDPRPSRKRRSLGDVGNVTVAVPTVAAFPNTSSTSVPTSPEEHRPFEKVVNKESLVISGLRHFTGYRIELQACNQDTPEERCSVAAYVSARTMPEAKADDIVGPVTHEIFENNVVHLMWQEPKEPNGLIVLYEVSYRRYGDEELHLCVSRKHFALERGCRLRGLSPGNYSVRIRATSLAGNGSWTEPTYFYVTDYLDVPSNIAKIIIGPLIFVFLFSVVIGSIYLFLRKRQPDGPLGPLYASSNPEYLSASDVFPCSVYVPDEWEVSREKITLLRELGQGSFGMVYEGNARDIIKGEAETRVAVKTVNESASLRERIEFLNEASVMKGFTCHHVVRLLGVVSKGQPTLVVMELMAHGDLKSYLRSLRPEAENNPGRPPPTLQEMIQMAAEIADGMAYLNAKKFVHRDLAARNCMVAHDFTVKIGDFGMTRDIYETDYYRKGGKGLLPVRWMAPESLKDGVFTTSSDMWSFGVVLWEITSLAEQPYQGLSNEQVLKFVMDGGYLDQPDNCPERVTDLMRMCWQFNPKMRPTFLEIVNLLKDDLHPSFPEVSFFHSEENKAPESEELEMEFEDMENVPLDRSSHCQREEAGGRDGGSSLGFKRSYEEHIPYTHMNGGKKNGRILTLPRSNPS
In short: as §1

SMILES | IC50 (COLO205 (colon)) [nM] | IC50 [1] [nM] | IC50 [2] [nM] | IC50 [3] [nM]
COc1cc(N2CCN3CCOC[C@@H]3C2)ccc1Nc1nccc(-c2c(-c3ccc(OC)c(C(=O)Nc4c(F)cccc4F)c3)nc3ccccn23)n1 [Example 124, N-(2,6-difluorophenyl)-5-[3-(2-{[4-[(9aS)-hexahydropyrazino[2,1-c][1,4]oxazin-8(1H)-yl]-2-(methyloxy)phenyl]amino}-4-pyrimidinyl)imidazo[1,2-a]pyridin-2-yl]-2-(methyloxy)-benzamide] | > 1000 | < 250 | < 100 | < 100
COc1cc(N2CCC(C3CCN(CCF)CC3)CC2)ccc1Nc1nccc(-c2c(-c3ccc(OC)c(C(=O)Nc4c(F)cccc4F)c3)nc3ccccn23)n1 [Example 96, N-(2,6-difluorophenyl)-5-[3-(2-{[4-[1′-(2-fluoroethyl)-4,4′-bipiperidin-1-yl]-2-(methyloxy)phenyl]amino}-4-pyrimidinyl)imidazo[1,2-a]pyridin-2-yl]-2-(methyloxy)benzamide] | > 1000 | 250 to 1000 | < 100 | < 100
COc1cc(N2CCC(N3CCN4CCOC[C@@H]4C3)CC2)ccc1Nc1nccc(-c2c(-c3ccc(OC)c(C(=O)Nc4c(F)cccc4F)c3)nc3ccccn23)n1 [Example 88, N-(2,6-difluorophenyl)-5-[3-(2-{[4-{4-[(9aS)-hexahydropyrazino[2,1-c][1,4]oxazin-8(1H)-yl]-1-piperidinyl}-2-(methyloxy)phenyl]amino}-4-pyrimidinyl)imidazo[1,2-a]pyridin-2-yl]-2-(methyloxy)benzamide] | > 1000 | < 250 | < 100 | < 100
COc1cc(N2CCC(N3CCN(CCF)CC3)CC2)c(OC)cc1Nc1nccc(-c2c(-c3cccc(C(=O)Nc4c(F)cccc4F)c3)nc3ccccn23)n1 [Example 111, N-(2,6-difluorophenyl)-3-[3-(2-{[4-{4-[4-(2-fluoroethyl)-1-piperazinyl]-1-piperidinyl}-2,5-bis(methyloxy)phenyl]amino}-4-pyrimidinyl)imidazo[1,2-a]pyridin-2-yl]benzamide] | 250 to 1000 | < 250 | < 100 | < 100
CCOc1cc(N2CCN(C(C)C)CC2)ccc1Nc1nccc(-c2c(-c3cccc(C(=O)Nc4c(F)cccc4F)c3)nc3ccccn23)n1 [Example 171, N-(2,6-difluorophenyl)-3-{3-[2-({2-(ethyloxy)-4-[4-(1-methylethyl)-1-piperazinyl]phenyl}amino)-4-pyrimidinyl]imidazo[1,2-a]pyridin-2-yl}benzamide] | 250 to 1000 | 250 to 1000 | < 100 | < 100
COc1cc(N2CCC(N3CCN(CCS(C)(=O)=O)CC3)CC2)ccc1Nc1nccc(-c2c(-c3cccc(C(=O)Nc4c(F)cccc4F)c3)nc3c(C)cccn23)n1 [Example 67, N-(2,6-difluorophenyl)-3-[8-methyl-3-(2-{[2-(methyloxy)-4-(4-{4-[2-(methylsulfonyl)ethyl)-1-piperazinyl}-1-piperidinyl)phenyl]amino]-4-pyrimidinyl)imidazo[1,2-a]pyridin-2-yl]benzamide] | 250 to 1000 | 250 to 1000 | < 100 | 100 to 500
CC(C)Cc1cc(N2CCC(N3CCCCC3)CC2)ccc1Nc1nccc(-c2c(-c3cccc(C(=O)Nc4c(F)cccc4F)c3)nc3ccccn23)n1 [Example 42, 3-[3-(2-{[4-(1,4′-bidideridin-1′-yl)-2-(2-methylpropyl)phenyl]amino}-4-pyrimidinyl)imidazo[1,2-a]pyridin-2-yl]-N-(2,6-difluorophenyl)benzamide] | > 1000 | > 1000 | < 100 | > 500
COc1cc(N2CCC(N3CCN(CCF)CC3)CC2)ccc1Nc1nccc(-c2c(-c3ccc(OC)c(C(=O)Nc4c(F)cccc4F)c3)nc3ccccn23)n1 [Example 61, N-(2,6-difluorophenyl)-5-[3-(2-{[4-{4-[4-(2-fluoroethyl)-1-piperazinyl]-1-piperidinyl}-2-(methyloxy)phenyl]amino}-4-pyrimidinyl)imidazo[1,2-a]pyridin-2-yl]-2-(methyloxy)benzamide] | 250 to 1000 | < 250 | < 100 | < 100

The next lines start with the values.

IC50 (COLO205 (colon)) [nM] | IC50 [1] [nM] | IC50 [2] [nM] | IC50 [3] [nM] | SMILES
250 to 1000 | < 250 | < 100 | < 100 | COc1cc(C2CCN(CC(C)C)CC2)ccc1Nc1nccc(-c2c(-c3cccc(C(=O)Nc4c(F)cccc4F)c3)nc3ccccn23)n1 [Example 162, N-(2,6-difluorophenyl)-3-{3-[2-({2-(methyloxy)-4-[1-(2-methylpropyl)-4-piperidinyl]phenyl}amino)-4-pyrimidinyl]imidazo[1,2-a]pyridin-2-yl}benzamide]
< 250 | < 250 | < 100 | < 100 | CCOc1ccc(-c2nc3ccccn3c2-c2ccnc(Nc3cc(CC)c(N4CCN(CCS(C)(=O)=O)CC4)cc3OC)n2)cc1C(=O)Nc1c(F)cccc1F [Example 235, N-(2,6-difluorophenyl)-5-(3-{2-[(5-ethyl-2-(methyloxy)-4-{4-[2-(methylsulfonyl)ethyl]-1-piperazinyl}phenyl)amino]-4-pyrimidinyl}imidazo[1,2-a]pyridin-2-yl)-2-(ethyloxy)benzamide]
250 to 1000 | < 250 | < 100 | < 100 | COc1cc(N2CCN(S(C)(=O)=O)CC2)ccc1Nc1nccc(-c2c(-c3cccc(C(=O)Nc4c(F)cccc4F)c3)nc3ccccn23)n1 [Example 234, N-(2,6-difluorophenyl)-3-{3-[2-({2-(methyloxy)-4-[4-(methylsulfonyl)-1-piperazinyl]phenyl}amino)-4-pyrimidinyl}imidazo[1,2-a]pyridin-2-yl]benzamide]
250 to 1000 | 250 to 1000 | 100 to 500 | < 100 | CCCN1CCN(c2ccc(Nc3nccc(-c4c(-c5cccc(C(=O)Nc6c(F)cccc6F)c5)nc5ccccn45)n3)c(OCC)c2)CC1 [Example 153, N-(2,6-difluorophenyl)-3-[3-(2-{[2-(ethyloxy)-4-(4-propyl-1-piperazinyl)phenyl]amino}-4-pyrimidinyl)imidazo[1,2-a]pyridin-2-yl]benzamide]
250 to 1000 | < 250 | < 100 | < 100 | COc1cc(N2CCN(C(C)C)CC2)ccc1Nc1nccc(-c2c(-c3ccc(OC)c(C(=O)Nc4c(F)cccc4F)c3)nc3ccccn23)n1 [Example 176, N-(2,6-difluorophenyl)-5-[3-(2-{[4-[4-(1-methylethyl)-1-piperazinyl]-2-(methyloxy)phenyl]-amino}-4-pyrimidinyl)imidazo[1,2-a]pyridin-2-yl]-2-(methyloxy)benzamide]
250 to 1000 | 250 to 1000 | < 100 | < 100 | COc1cc(N2CCC(N3CCCCC3)CC2)ccc1Nc1nccc(-c2c(-c3cccc(C(=O)Nc4c(F)cccc4F)c3)nc3cc(F)ccn23)n1 [Example 195, 3-[3-(2-{[4-(1,4′-bipiperidin-1′-yl)-2-(methyloxy)phenyl]amino}-4-pyrimidinyl)-7-fluoroimidazo[1,2-a]pyridin-2-yl]-N-(2,6-difluorophenyl)benzamide]
250 to 1000 | < 250 | < 100 | < 100 | COc1cc(N2CCC(N3CCCCC3)CC2)ccc1Nc1nccc(-c2c(-c3ccc(OC)c(C(=O)Nc4c(F)cccc4F)c3)nc3cc(F)ccn23)n1 [Example 198, 5-[3-(2-{[4-(1,4′-bipiperidin-1′-yl)-2-(methyloxy)phenyl]amino}-4-pyrimidinyl)-7-fluoroimidazo[1,2-a]pyridin-2-yl]-N-(2,6-difluorophenyl)-2-(methyloxy)benzamide]
< 250 | < 250 | < 100 | < 100 | CCCN1CCC(c2cc(OC)c(Nc3nccc(-c4c(-c5ccc(OCC)c(C(=O)Nc6c(F)cccc6F)c5)nc5ccccn45)n3)cc2C)CC1 [Example 158, N-(2,6-difluorophenyl)-2-(ethyloxy)-5-[3-(2-{[5-methyl-2-(methyloxy)-4-(1-propyl-4-piperidinyl)phenyl]amino}-4-pyrimidinyl)imidazo[1,2-a]pyridin-2-yl]benzamide]
< 250 | < 250 | < 100 | < 100 | CCOc1ccc(-c2nc3ccccn3c2-c2ccnc(Nc3ccc(N4CCC(N5CCN(S(C)(=O)=O)CC5)CC4)cc3OC)n2)cc1C(=O)Nc1c(F)cccc1F [Example 228, N-(2,6-difluorophenyl)-2-(ethyloxy)-5-(3-{2-[(2-(methyloxy)-4-{4-[4-(methylsulfonyl)-1-piperazinyl]-1-piperidinyl}phenyl)amino]-4-pyrimidinyl}imidazo[1,2-a]pyridin-2-yl)benzamide]
< 250 | < 250 | < 100 | < 100 | COc1cc(C2CCN(C3CCN(CCS(C)(=O)=O)CC3)CC2)ccc1Nc1nccc(-c2c(-c3cccc(C(=O)Nc4c(F)cccc4F)c3)nc3ccccn23)n1 [Example 99, N-(2,6-difluorophenyl)-3-(3-{2-[(2-(methyloxy)-4-{1′-[2-(methylsulfonyl)ethyl]-1,4′-bipiperidin-4-yl}phenyl)amino]-4-pyrimidinyl}imidazo[1,2-a]pyridin-2-yl)benzamide]
